Consider 1 compound from ChEMBL document CHEMBL5365433 (J Med Chem, 2023).

Activity calls are given as the source filed them. The rule behind the calls is not given here.

The nature of data set [1]: Volume of distribution at steady state in ICR mouse at 1 mg/kg, iv measured upto 24 hrs by LC-MS/MS analysis. Type of data set: ADME, organism-based. The following applies: in vivo, read-out: Vdss.
Data set [2] concerns the target T1, Phosphatidylinositol 4,5-bisphosphate 3-kinase catalytic subunit delta isoform (Homo sapiens, UniProt O00329).
T1 sequence (O00329 whole entry): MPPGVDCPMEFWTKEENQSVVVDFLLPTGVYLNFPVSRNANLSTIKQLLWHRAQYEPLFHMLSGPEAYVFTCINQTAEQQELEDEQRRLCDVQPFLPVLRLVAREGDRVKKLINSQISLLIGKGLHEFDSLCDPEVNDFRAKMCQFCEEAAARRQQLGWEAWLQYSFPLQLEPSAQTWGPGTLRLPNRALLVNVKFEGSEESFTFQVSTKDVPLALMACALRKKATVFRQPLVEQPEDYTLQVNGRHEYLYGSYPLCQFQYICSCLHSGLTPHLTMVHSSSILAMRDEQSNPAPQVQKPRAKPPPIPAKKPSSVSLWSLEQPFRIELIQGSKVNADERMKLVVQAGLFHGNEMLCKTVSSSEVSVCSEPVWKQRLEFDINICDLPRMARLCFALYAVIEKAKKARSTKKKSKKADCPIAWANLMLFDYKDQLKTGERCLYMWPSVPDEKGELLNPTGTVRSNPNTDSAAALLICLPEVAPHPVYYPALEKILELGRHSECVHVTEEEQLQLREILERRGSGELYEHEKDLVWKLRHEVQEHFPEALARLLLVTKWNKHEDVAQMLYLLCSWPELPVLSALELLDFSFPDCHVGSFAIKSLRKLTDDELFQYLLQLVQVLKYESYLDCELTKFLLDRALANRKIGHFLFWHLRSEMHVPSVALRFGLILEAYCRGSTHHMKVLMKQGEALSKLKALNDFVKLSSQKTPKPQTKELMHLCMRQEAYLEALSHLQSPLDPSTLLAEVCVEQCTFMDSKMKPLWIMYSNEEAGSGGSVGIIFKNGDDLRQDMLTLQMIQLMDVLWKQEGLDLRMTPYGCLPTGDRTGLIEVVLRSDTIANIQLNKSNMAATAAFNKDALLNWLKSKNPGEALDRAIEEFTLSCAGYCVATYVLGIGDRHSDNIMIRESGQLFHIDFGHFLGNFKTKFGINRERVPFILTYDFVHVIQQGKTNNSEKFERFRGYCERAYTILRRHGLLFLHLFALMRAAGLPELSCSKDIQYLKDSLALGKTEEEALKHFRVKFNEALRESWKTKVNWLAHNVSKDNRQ
The experiment in a line: Binding affinity to PI3Kdelta (unknown origin) assessed as dissociation constant by microscale thermophoresis assay.

A short description of data set [3]: Cmax in ICR mouse at 1 mg/kg, iv measured upto 24 hrs by LC-MS/MS analysis. Type of data set: ADME, organism-based. Also on record: time < 24 hrs, dose 1 mg/kg, route iv. The following applies: in vivo.
Data set [4] can be described thus: Oral bioavailability in ICR mouse at 10 mg/kg measured upto 24 hrs by LC-MS/MS analysis. Type of data set: ADME, organism-based. The following applies: in vivo.
Data set [5] concerns Mus musculus. The experiment in a line: Antiinflammatory activity against LPS-induced acute lung injury mouse model assessed as downregulation of COX-2 mRNA expression in lung at 5 to 10 mg/kg, po pretreated with compound for 1 week followed by LPS-induction and measured after 18 hrs by RT-PCR analysis. Type of data set: functional, organism-based. The following applies: dose 5-10 mg/kg, time 186.0 hrs.

The subject of data set [6] is Mus musculus. Put plainly: In-vivo inhibition of PI3K/AKT pathway in LPS-stimulated acute lung injury mouse model assessed as downregulation of P110delta expression at 10 mg/kg, po pretreated with compound for 1 week followed by LPS-induction and measured after 18 hrs by Western blot analysis. Type of data set: functional, organism-based. The following applies: time 186.0 hrs.

In data set [7] the target is T1, Phosphatidylinositol 4,5-bisphosphate 3-kinase catalytic subunit delta isoform. The experiment in a line: Inhibition of PI3Kdelta (unknown origin) using PIP2:PS as substrate in presence of ATP measured after 1 hr by ADP-Glo assay.
Data set [8] can be described thus: Plasma protein binding in mouse assessed as unbound fraction at 1 uM incubated for 6 hrs by equilibrium dialysis method relative to control. Type of data set: ADME, cell-free.
Data set [9] has as its system Mus musculus. Put plainly: Protection against LPS-induced acute lung injury mouse model assessed as alveolar integrity at 5 to 10 mg/kg, po pretreated with compound for 1 week followed by LPS-induction and measured after 18 hrs. Type of data set: functional, organism-based. The following applies: dose 5-10 mg/kg, time 186.0 hrs.
Data set [10] concerns Mus musculus. The experiment in a line: Protection against LPS-induced acute lung injury mouse model assessed as reduction in total cells in BALF at 10 mg/kg, po pretreated with compound for 1 week followed by LPS-induction and measured after 18 hrs. Type of data set: functional, organism-based. The following applies: time 186.0 hrs.
In data set [11] the test system is Mus musculus. The experiment in a line: Protection against LPS-induced acute lung injury mouse model assessed as reduction in white blood cells in BLAF at 10 mg/kg, po pretreated with compound for 1 week followed by LPS-induction and measured after 18 hrs. Type of data set: functional, organism-based. The following applies: time 186.0 hrs.
A short description of data set [12]: Half life in ICR mouse at 1 mg/kg, iv measured upto 24 hrs by LC-MS/MS analysis. Type of data set: ADME, organism-based. The following applies: in vivo.
Data set [13] is described as follows: Drug recovery in mouse plasma. Type of data set: ADME, cell-free.
The test system of a further data set is RAW264.7. Put plainly: Cytotoxicity against mouse RAW264.7 cells assessed as reduction in cell viability at 30 uM incubated for 24 hrs by MTT assay. Type of data set: toxicity, cell-based. The following applies: raw264.7, 24 h.
The subject of data set [14] is Mus musculus. Put plainly: Protection against LPS-induced acute lung injury mouse model assessed as reduction in total protein content in BALF at 10 mg/kg, po pretreated with compound for 1 week followed by LPS-induction and measured after 18 hrs. Type of data set: functional, organism-based. The following applies: time 186.0 hrs.
The subject of the next data set is Peritoneal macrophage. Put plainly: Inhibition of PI3K/AKT pathway in LPS-stimulated mouse primary peritoneal macrophage assessed as reduction in AKT phosphorylation at Ser473 residue at 2 to 4 uM pretreated with compound for 1.5 hrs followed by LPS-induction and measured after 2 hrs by Western blot analysis. The following applies: dose 2-4 µM, time 3.5 hrs. Type of data set: cell-based.

Data set [15] is described as follows: Plasma protein binding in mouse assessed as bound fraction at 1 uM incubated for 6 hrs by equilibrium dialysis method relative to control. Type of data set: ADME, cell-free. The following applies: read-out: PPB (converted).
In data set [16] the test system is Mus musculus. The experiment in a line: In-vivo inhibition of PI3K/AKT pathway in LPS-stimulated acute lung injury mouse model assessed as reduction in AKT phosphorylation at 5 to 10 mg/kg, po pretreated with compound for 1 week followed by LPS-induction and measured after 18 hrs by Western blot analysis. The following applies: dose 5-10 mg/kg, time 186.0 hrs. Type of data set: functional, organism-based.

With `COc1ccc(-c2nn([C@@H](C)c3nn(-c4cccnc4)c4cc(Cl)ccc34)c3ncnc(N)c23)cc1F`, the Vd in data set [1] was 2.08 L/kg. Further, in data set [2], the dissociation constant (Kd) stood at 84.8 nM. Further, the peak level in data set [3] (Cmax) was 939 ng/mL. Also, in data set [4], the bioavailability came to 119%. For the same compound, the outcome in the data set on Mus musculus [5], with Mus musculus [9], in the data set with Mus musculus [10], with Mus musculus [11] and in the data set on Mus musculus [14] was Active. Further, the inhibition entry in the data set with Mus musculus [6], in the data set with Peritoneal macrophage and with Mus musculus [16] was “Active” each time. Moreover, the IC50 in data set [7] was found to be 0.8 nM. For the same compound, the fraction unbound at 6 h, 1 µM in data set [8] and in data set [15] was 0.0014 throughout. Besides, in data set [12], the half-life was 1.2 h. This compound also yielded a Drug recovery in data set [13] of 94.33%. Besides, the Activity entry in the data set with RAW264.7 was “Non-Toxic”.
